Test results published in paper PMC12673918, “Design, Synthesis, and Selective Antiproliferative Activity of Indolizine Derivatives as Microtubule Destabilizers” (Archiv Der Pharmazie, 2025).

What was measured:
Type in all cases: cell-based
[1] = test system: HGC‐27 (gastric carcinoma); test: Resazurin cell viability assay, HGC‐27; details: 50 µM, 72 h, mean ± SD, n = 3; for inhibition at 50 µM: Homo sapiens, HGC-27, read-out: % Cellular growth inhibition (at 50 µM) HGC‐27
Protocol: (§1) The tongue squamous cell carcinoma cell line CAL‐27 (ATCC CRL‐2095), breast carcinoma BT‐20 (ATCC HTB‐19), gastric carcinoma HGC‐27 (BCRJ Code 0310), and normal oral fibroblast OHMF (culture of fibroblasts derived from human oral healthy mucosa, approved by the Research Ethics Committee of the University of São Paulo, Campus of Ribeirão Preto, Brazil (with protocol number 049) were cultured in DMEM medium (DMEM, Sigma‐Aldrich, St. Louis, MO, USA) supplemented with 10% fetal bovine serum and a solution of penicillin (100 U/mL) and streptomycin (100 μg/mL). The cultures were maintained in a humidified incubator with 5% CO₂ at 37°C.
(§2) Cell viability was analyzed using the resazurin assay. For this, cells were seeded in 96‐well plates (1 × 10^3 cells per well) and incubated at 37°C with 5% CO₂ overnight for cell adhesion. Subsequently, the cells were treated with different compounds (0–50 µM) for 72 h. After treatment, the medium was replaced with phenol‐free DMEM medium (Sigma‐Aldrich) containing resazurin at a concentration of 44 µM (Sigma‐Aldrich). After incubation for 4 h at 37°C, fluorescence detection was performed (excitation 530/25 nm, emission 590/35 nm) using a microplate fluorimeter (Synergy 2, Biotek). Initial cell growth inhibition assays were performed in triplicate or quadruplicate, while IC50 determinations were conducted in triplicate. Data were plotted, and IC₅₀ values were determined by nonlinear regression using GraphPad Prism software 9.0.
(§3) ^a Cell viability was assessed using the resazurin assay after 72 hours of compound treatment. Fluorescence was measured to estimate % of cellular growth inhibition at 50 µM values, based on triplicate experiments.
(§4) ^b IC50 values were determined using the same resazurin-based assay, with fluorescence measurements performed after 72 hours of treatment. These experiments were carried out in triplicate.

CAL‐27 (oral carcinoma) = test: Resazurin cell viability assay, CAL‐27; details: 50 µM, 72 h, mean ± SD, n = 3; for inhibition at 50 µM: Homo sapiens, CAL-27, read-out: % Cellular growth inhibition (at 50 µM) CAL‐27
Protocol: as §1, §2, §3, §4

BT‐20 (breast carcinoma) = test: Resazurin cell viability assay, BT‐20; details: 50 µM, 72 h, mean ± SD, n = 3; for inhibition at 50 µM: Homo sapiens, BT-20, read-out: % Cellular growth inhibition (at 50 µM) BT‐20
Protocol: as §1, §2, §3, §4

human P2X7 receptor = target: T1, human P2X7 receptor (Homo sapiens, UniProt Q99572); test: YO‐PRO‐1 dye uptake assay for the P2X7 receptor; details: for inhibition at 10 µM: P2X7, read-out: % Inhibition of P2X7R at 10 µM compounds’ concentration
T1 construct: host or cells: HEK-293
T1 sequence (Q99572 1-595): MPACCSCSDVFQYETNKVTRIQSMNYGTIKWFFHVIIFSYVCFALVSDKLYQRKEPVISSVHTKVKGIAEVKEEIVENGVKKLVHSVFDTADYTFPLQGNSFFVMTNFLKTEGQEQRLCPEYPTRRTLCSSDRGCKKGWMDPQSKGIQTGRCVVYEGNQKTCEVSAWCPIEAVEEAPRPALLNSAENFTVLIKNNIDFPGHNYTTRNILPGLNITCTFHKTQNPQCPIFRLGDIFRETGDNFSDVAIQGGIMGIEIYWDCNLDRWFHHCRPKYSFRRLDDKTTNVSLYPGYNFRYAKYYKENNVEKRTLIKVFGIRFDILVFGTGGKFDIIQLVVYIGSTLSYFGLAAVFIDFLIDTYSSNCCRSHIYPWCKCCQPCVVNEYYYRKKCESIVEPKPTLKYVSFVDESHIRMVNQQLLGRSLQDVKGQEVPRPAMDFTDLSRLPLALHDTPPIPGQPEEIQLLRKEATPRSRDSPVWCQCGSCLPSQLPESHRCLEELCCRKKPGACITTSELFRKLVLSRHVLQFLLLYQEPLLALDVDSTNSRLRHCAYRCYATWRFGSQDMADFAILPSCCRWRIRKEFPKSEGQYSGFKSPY
Protocol: HEK‐293 cell lines stably expressing human P2X7 receptor (hP2X7R‐HEK‐293, B'SYS GmbH, Witterswil, Switzerland) were maintained in a 50/50 mix of Dulbecco's Modified Eagle Medium and F12 medium (DMEM/F12) supplemented with 9% (v/v) FCS, 1% (v/v) Penicillin/Streptomycin (10000 I.U./mL, 10 mg/mL in 0.9% NaCl) and G418 (100 µg/mL) at 37°C and 5% CO2. Cells were subcultured in cell culture 75 cm^2 flasks and split every 2‐4 days (1:3; 1:6; 1:10) once confluent.
HEK‐293 cell lines stably expressing human P2X7 receptor were seeded into black‐walled Nunc 96‐well optical bottom plates (Thermo Fisher Scientific) at 2.0–4.0 × 10^4 cells/well and incubated at 37°C for 24–48 h. After removing the culture medium, cells were washed with 100 µL wash buffer (280 mM Sucrose; 5.6 mM KCl; 0.5 mM CaCl2; 10 mM D‐Glucose; 10 mM HEPES; 5 mM N‐Methyl‐D‐glucamine (pH 7.4)). Then, 50 µL assay buffer (280 mM Sucrose; 6.4 mM KCl, 10 mM D‐Glucose; 10 mM HEPES; 5.0 mM N‐Methyl‐D‐glucamine (pH 7.4)) and 50 µL of antagonist dilutions (10^–5–10^–9 M) in assay buffer were added, and the cells were incubated at 37°C for 30 min. […] Finally, the uptake of YO‐PRO‐1 dye was recorded in a 9‐point‐well scan by following the fluorescence change using a FlexStation 3 Multi‐Mode Microplate Reader (Molecular Devices, San Jose, CA, USA, Software SoftMax7 Pro, endpoint protocol, well scan with reading pattern “fill scan”, λ ex = 485 nm, λ em = 535 nm). To determine the concentration‐dependent uptake inhibition by antagonists, the YO‐PRO‐1 uptake, expressed as RFU, was plotted against the concentrations of the compounds.

human P2X4 receptor = target: T2, human P2X4 receptor (Homo sapiens, UniProt Q99571); test: Ca2+‐flux assay for the hP2X4 receptor; details: for inhibition at 10 µM: read-out: % Inhibition of P2X4R at 10 µM compounds’ concentration
T2 construct: expressed in transfected cells; host or cells: human 1321N1 astrocytoma cells
T2 sequence (Q99571 1-388): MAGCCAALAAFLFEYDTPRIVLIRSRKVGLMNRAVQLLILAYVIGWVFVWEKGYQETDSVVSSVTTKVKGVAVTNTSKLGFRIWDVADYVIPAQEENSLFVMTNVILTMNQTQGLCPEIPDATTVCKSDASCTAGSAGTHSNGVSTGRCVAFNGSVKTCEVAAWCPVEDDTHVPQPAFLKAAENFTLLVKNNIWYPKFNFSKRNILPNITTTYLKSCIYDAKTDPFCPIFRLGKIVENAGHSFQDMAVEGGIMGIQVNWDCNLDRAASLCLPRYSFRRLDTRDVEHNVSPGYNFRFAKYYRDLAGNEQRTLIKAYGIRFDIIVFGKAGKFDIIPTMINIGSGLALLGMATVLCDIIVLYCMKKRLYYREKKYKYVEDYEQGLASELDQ
Protocol: Human 1321N1 astrocytoma cells stably expressing the human P2X4 receptor (generated in‐house) were cultured in Dulbecco's Modified Eagle Medium supplemented with 9% (v/v) FCS, 1% (v/v) Penicillin/Streptomycin (10000 I.U./mL, 10 mg/mL in 0.9% NaCl) and puromycin (1 µg/mL) as a selection antibiotic at 37°C and 5% CO2. Cells were subcultured in cell culture 75 cm^2 flasks and split every 2–4 days (1:5; 1:6) once confluent.
1321N1 cells stably expressing human P2X4 receptor were seeded into black‐walled 96‐well plates (Thermo Fisher Scientific) at 2.5 × 10^4 cells/well and incubated at 37°C for 24–48 h. All test compounds were diluted in assay buffer solution (SBS: 135 mM NaCl; 5 mM KCl; 1 mM MgCl2.6 H2O; 1.8 mM CaCl2; 5.6 mM D‐Glucose; 10 mM HEPES, 0.1% (m/v) BSA, 0.05% (m/v) gelatine, 2.3 mM probenecid). The culture medium was removed, and 100 µL of 4 μM fluorescent Ca^2+ indicator Calbryte520AM in SBS was added and incubated at 37°C for 1 h. The dye solution was then removed, 100 µL of SBS solution and 50 µL of antagonist dilutions (10^–5–10^–9 M) in SBS were added, and the cells were incubated at room temperature for an extra 30 min. Finally, 50 µL of ATP (at a concentration of the previously determined EC50‐ value) was added by using FlexStation 3 Multi‐Mode Microplate Reader (Molecular Devices, San Jose, CA, USA, Software SoftMax7 Pro). The changes in intracellular Ca^2+ ion concentrations were monitored over 200 s (20 s baseline) by measuring the fluorescence signal at λ ex = 494 nm and λ em = 516 nm ([…] cut‐off). The concentration‐dependent decrease in Ca^2+‐flux, expressed as RFU, was plotted against the concentrations of the compounds.

[2] = test system: CAL‐27, BT‐20 and HGC‐27 cancer cell lines; test: Resazurin antiproliferative screening, cancer cell line panel; details: 50 μM, 70% inhibition threshold
Protocol: as §1, §2

Row | SMILES | inhibition at 10 µM (human P2X7 receptor) | inhibition at 10 µM (human P2X4 receptor) | % Inhibition of P2X7R at 10 µM compounds’ concentration (human P2X7 receptor; 10 μM) | % Inhibition of P2X4R at 10 µM compounds’ concentration (human P2X4 receptor; 10 μM) | inhibition at 50 µM [1] | inhibition at 50 µM (CAL‐27 (oral carcinoma)) | inhibition at 50 µM (BT‐20 (breast carcinoma)) | % Cellular growth inhibition (at 50 µM) HGC‐27 [1] | % Cellular growth inhibition (at 50 µM) CAL‐27 (CAL‐27 (oral carcinoma)) | % Cellular growth inhibition (at 50 µM) BT‐20 (BT‐20 (breast carcinoma)) | level of inhibition in the 50 µM screening [2]
1 | COc1ccc2c(C(=O)c3cc(OC)c(OC)c(OC)c3)c(-c3ccccn3)cn2c1 [Compound 8g, [6‐methoxy‐2‐(pyridin‐2‐yl)indolizin‐1‐yl](3,4,5‐trimethoxyphenyl)methanone] | 1% | -8% | – | – | 44 ± 0.4% | 68 ± 1% | 54 ± 2.8% | – | – | – | –
2 | O=C(c1ccc(Cl)c(Cl)c1)c1ccn2ccccc12 [Compound 6e, (3,4‐dichlorophenyl)(indolizin‐1‐yl)methanone] | 7% | 9% | – | – | 41 ± 1% | 42 ± 0.8% | 40 ± 0.4% | – | – | – | –
3 | Cc1ccc(C(=O)c2ccn3ccccc23)cc1 [Compound 6c, (Indolizin‐1‐yl)(p‐tolyl)methanone] | -8% | 3% | – | – | 20 ± 0.6% | 22 ± 2.6% | 28 ± 1.3% | – | – | – | –
4 | COc1ccc(C(=O)c2ccn3ccccc23)cc1 [Compound 6d, (Indolizin‐1‐yl)(4‐methoxyphenyl)methanone] | 5% | 0% | – | – | 24 ± 1.1% | 18 ± 0.6% | 28 ± 0.5% | – | – | – | –

Now from value to compound, other results behind:

Row | inhibition at 10 µM (human P2X7 receptor) | inhibition at 10 µM (human P2X4 receptor) | % Inhibition of P2X7R at 10 µM compounds’ concentration (human P2X7 receptor; 10 μM) | % Inhibition of P2X4R at 10 µM compounds’ concentration (human P2X4 receptor; 10 μM) | SMILES | inhibition at 50 µM [1] | inhibition at 50 µM (CAL‐27 (oral carcinoma)) | inhibition at 50 µM (BT‐20 (breast carcinoma)) | % Cellular growth inhibition (at 50 µM) HGC‐27 [1] | % Cellular growth inhibition (at 50 µM) CAL‐27 (CAL‐27 (oral carcinoma)) | % Cellular growth inhibition (at 50 µM) BT‐20 (BT‐20 (breast carcinoma)) | level of inhibition in the 50 µM screening [2]
5 | -6% | -7% | – | – | COc1ccc2c(C(=O)c3ccccc3)ccn2c1 [Compound 7a, (6‐methoxyindolizin‐1‐yl)(phenyl)methanone] | 18 ± 0.5% | 20 ± 0.9% | 20 ± 0.4% | – | – | – | –
6 | 2% | 8% | – | – | COc1ccc(C(=O)c2ccn3cc(OC)ccc23)cc1 [Compound 7d, (6‐methoxyindolizin‐1‐yl)(4‐methoxyphenyl)methanone] | 1 ± 1% | 15 ± 1.1% | 7 ± 0.9% | – | – | – | –
7 | – | – | -10% | 2% | CCOC(=O)c1cn2cc(OC)ccc2c1C(=O)c1cc(OC)c(OC)c(OC)c1 [Compound 8d, Ethyl [6‐methoxy‐1‐(3,4,5‐trimethoxybenzoyl)indolizine]‐2‐carboxylate] | – | – | – | 44 ± 1.9% | 66 ± 0.8% | 55 ± 4.7% | ≤ 70%
8 | 5% | 4% | – | – | COc1ccc2c(C(=O)c3cc(OC)c(OC)c(OC)c3)c(-c3ccccc3)cn2c1 [Compound 8f, (6‐methoxy‐2‐phenylindolizin‐1‐yl)(3,4,5‐trimethoxyphenyl)methanone] | 49 ± 4% | 69 ± 0.4% | 55 ± 1.8% | – | – | – | –
9 | 5% | 4% | – | – | COc1ccc(CC(=O)c2cc(OC)c(OC)c(OC)c2)nc1 [Compound 5f, 2‐(5‐methoxypyridin‐2‐yl)‐1‐(3,4,5‐trimethoxyphenyl)ethenone] | 48 ± 4.9% | 67 ± 2.7% | 52 ± 4.2% | – | – | – | –
